From the supplement of paper PMC11061612

How the values were obtained:
[1] = test system: RCC10RGB (Kidney Carcinoma); assay: Bliss excess, mean over the matrix (fraction); higher = more synergy
In short: (§1)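 Cell lines in DMEM/F12 or RPMI with 10% FBS were plated in 1536-well plates, held 24 hours at 37°C, 5% CO2, then given two-drug dose matrices for 72 hours (DMSO typically 0.2%). Viability was read by CellTiter-Glo 2.0 luminescence and scaled as inhibition from 0 (vehicle wells) to 1 (blank wells). Combination Emax is the second-highest inhibition in the matrix; Bliss excess is observed combination effect minus expected EA + EB − EA·EB, EA and EB being single-agent effects.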

[2] = test system: 647-V (Bladder Carcinoma); assay: as above
In short: as §1

[3] = test system: KG-1 (Acute Myeloid Leukemia); assay: as above
In short: as §1

[4] = test system: NOMO-1 (Acute Myeloid Leukemia); assay: as above
In short: as §1

[5] = test system: NCI-H1688 (Small Cell Lung Carcinoma); assay: as above
In short: as §1

[6] = test system: P31-FUJ (Acute Myeloid Leukemia); assay: combination Emax (second highest fraction inhibited in the dose matrix, 72 h); higher = more inhibition; extreme values may be limits of the assay
In short: as §1

SK-MEL-1 (Melanoma) = assay: as above
In short: as §1

HCC38 (Breast Carcinoma) = assay: as above
In short: as §1

MSTO-211H (Mesothelioma) = assay: as above
In short: as §1

[7] = test system: BICR78 (Oral Cavity Carcinoma); assay: as above
In short: as §1

[8] = test system: HCC-827 (Lung Adenocarcinoma); assay: as above
In short: as §1

[9] = test system: EFM-192A (Breast Carcinoma); assay: as above
In short: as §1

CS1 (Chondrosarcoma) = assay: as above
In short: as §1

EW-22 (Ewing's Sarcoma) = assay: as above
In short: as §1

A172 (Glioblastoma) = assay: as above
In short: as §1

[10] = test system: WSU-DLCL2 (B-Cell Non-Hodgkin's Lymphoma); assay: as above
In short: as §1

HuO9 (Osteosarcoma) = assay: as above
In short: as §1

[11] = test system: SNU-61 (Colorectal Carcinoma); assay: Bliss excess, mean over the matrix (fraction); higher = more synergy
In short: as §1

[12] = test system: SW48 (Colorectal Carcinoma); assay: combination Emax (second highest fraction inhibited in the dose matrix, 72 h); higher = more inhibition; extreme values may be limits of the assay
In short: as §1
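For Bliss excess, mean over the matrix in this document: after 72 h of two-drug dosing.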

Row | SMILES | Bliss excess [1] | Bliss excess [2] | Bliss excess [3] | Bliss excess [4] | Bliss excess [5] | combination Emax [6] | combination Emax (SK-MEL-1 (Melanoma)) | combination Emax (HCC38 (Breast Carcinoma)) | combination Emax (MSTO-211H (Mesothelioma)) | combination Emax [7] | combination Emax [8] | combination Emax [9] | combination Emax (CS1 (Chondrosarcoma)) | combination Emax (EW-22 (Ewing's Sarcoma)) | combination Emax (A172 (Glioblastoma)) | combination Emax [10] | combination Emax (HuO9 (Osteosarcoma)) | Bliss excess [11] | combination Emax [12]
1 | CN(C)CCCOc1ccc(-c2ccc3ncc4c(c3c2)n(C2CCOCC2)c(=O)n4C)cn1 [AZD0156] + O=C(c1cc(Cc2n[nH]c(=O)c3ccccc23)ccc1F)N1CCN(C(=O)C2CC2)CC1 [Olaparib] (first compound max 3 µM, partner max 3 µM) | -0.0356 | 0.0562 | 0.0474 | 0.0887 | -0.0122 | 0.368 | 0.0982 | 0.266 | 0.0713 | 0.129 | 0.325 | 0.248 | 0.296 | 0.872 | 0.323 | 0.89 | 0.49 | – | –
2 | C=CCn1c(=O)c2cnc(Nc3ccc(N4CCN(C)CC4)cc3)nc2n1-c1cccc(C(C)(C)O)n1 [AZD1775] + C1CN(CCC1(C(=O)N[C@@H](CCO)C2=CC=C(C=C2)Cl)N)C3=NC=NC4=C3C=CN4 [Capivasertib] (first compound max 3 µM, partner max 3 µM) | -0.0144 | 0.0493 | 0.0152 | 0.0076 | -0.0409 | 0.999 | 0.336 | 0.748 | 0.352 | 0.441 | 0.655 | 0.494 | 0.63 | 0.786 | 0.623 | 1 | 0.902 | – | –
3 | COc1nnc2ccc(N3CCC(c4ccc(OCCN5CCN(C)C(=O)[C@H]5C)cc4)CC3)nn12 [AZD5153] + C=CCn1c(=O)c2cnc(Nc3ccc(N4CCN(C)CC4)cc3)nc2n1-c1cccc(C(C)(C)O)n1 [AZD1775] (first compound max 1 µM, partner max 1 µM) | 0.0177 | -0.0448 | 0.004 | -0.0364 | -0.0604 | 0.97 | 0.568 | 0.433 | 0.255 | 0.482 | 0.583 | 0.391 | 0.553 | 0.781 | 0.543 | 0.996 | 0.919 | -0.0041 | 0.66
4 | COc1nnc2ccc(N3CCC(c4ccc(OCCN5CCN(C)C(=O)[C@H]5C)cc4)CC3)nn12 [AZD5153] + CC1(C)CCC(CN2CCN(c3ccc(C(=O)NS(=O)(=O)c4ccc(NCC5CCOCC5)c([N+](=O)[O-])c4)c(Oc4cnc5[nH]ccc5c4)c3)CC2)=C(c2ccc(Cl)cc2)C1 [Venetoclax] (first compound max 1 µM, 7x7, partner max 1 µM) | -0.0296 | -0.0455 | 0.163 | 0.0051 | -0.003 | 0.974 | 0.625 | 0.458 | 0.271 | 0.468 | 0.348 | 0.326 | 0.408 | 0.6 | 0.479 | 1 | 0.796 | -0.0374 | 0.631
5 | COc1nnc2ccc(N3CCC(c4ccc(OCCN5CCN(C)C(=O)[C@H]5C)cc4)CC3)nn12 [AZD5153] + CCN(CCO)CCCOc1ccc2c(Nc3cc(CC(=O)Nc4cccc(F)c4)[nH]n3)ncnc2c1 [AZD2811] (first compound max 1 µM, 7x7, partner max 1 µM) | -0.133 | 0.0236 | 0.0074 | -0.0225 | 0.0116 | 0.982 | 0.556 | 0.426 | 0.26 | 0.542 | 0.43 | 0.361 | 0.46 | 0.787 | 0.574 | 0.942 | 0.673 | -0.0074 | 0.912
6 | COc1nnc2ccc(N3CCC(c4ccc(OCCN5CCN(C)C(=O)[C@H]5C)cc4)CC3)nn12 [AZD5153] + C[C@@H]1COCCN1C2=NC(=NC(=C2)C3(CC3)[S@](=N)(=O)C)C4=C5C=CNC5=NC=C4 [AZD6738] (first compound max 1 µM, 7x7, partner max 10 µM) | 0.0638 | 0.029 | 0.0159 | -0.0324 | 0.0719 | 0.987 | 0.689 | 0.486 | 0.359 | 0.636 | 0.578 | 0.524 | 0.661 | 0.927 | 0.739 | 1 | 0.938 | 0.0459 | 0.752
7 | COc1nnc2ccc(N3CCC(c4ccc(OCCN5CCN(C)C(=O)[C@H]5C)cc4)CC3)nn12 [AZD5153] + Cc1c2c(nn1C)CSCc1cc(n(C)n1)CSc1cc(c3ccccc3c1)OCCCc1c(C(=O)O)n(C)c3c-2c(Cl)ccc13 [AZD5991] (first compound max 1 µM, 7x7, partner max 1 µM) | -0.0843 | -0.0135 | 0.0382 | 0.0355 | 0.0155 | 0.995 | 0.679 | 0.479 | 0.293 | 0.501 | 0.366 | 0.665 | 0.38 | 0.888 | 0.485 | 1 | 0.996 | -0.0178 | 0.711
8 | COc1nnc2ccc(N3CCC(c4ccc(OCCN5CCN(C)C(=O)[C@H]5C)cc4)CC3)nn12 [AZD5153] + Cn1cnc2c(F)c(Nc3ccc(Br)cc3Cl)c(C(=O)NOCCO)cc21 [Selumetinib] (first compound max 1 µM, 7x7, partner max 10 µM) | -0.114 | 0.0604 | 0.024 | 0.0443 | -0.0216 | 0.985 | 0.983 | 0.342 | 0.41 | 0.548 | 0.375 | 0.304 | 0.469 | 0.517 | 0.511 | 0.963 | 0.706 | 0.0407 | 0.786
9 | NC1(C(=O)N[C@@H](CCO)c2ccc(Cl)cc2)CCN(c2ncnc3[nH]ccc23)CC1 [Capivasertib] + CC(=O)c1c(C)c2cnc(Nc3ccc(N4CCNCC4)cn3)nc2n(C2CCCC2)c1=O [Palbociclib] (first compound max 10 µM, 7x7, partner max 10 µM) | -0.0368 | 0.0129 | -0.0421 | 0.0378 | 0.017 | 0.571 | 0.141 | 0.209 | 0.261 | 0.424 | 0.344 | 0.432 | 0.442 | 0.575 | 0.671 | 1 | 0.541 | -0.0289 | 0.63
10 | NC1(C(=O)N[C@@H](CCO)c2ccc(Cl)cc2)CCN(c2ncnc3[nH]ccc23)CC1 [Capivasertib] + CC(C)n1c(=O)n(C)c2cnc3cc(F)c(-c4ccc(OCCCN5CCCCC5)nc4)cc3c21 [AZD1390] (first compound max 10 µM, 7x7, partner max 0.3 µM) | -0.0676 | -0.04 | -0.0386 | -0.0537 | -0.044 | 0.645 | 0.226 | 0.352 | 0.213 | 0.368 | 0.322 | 0.402 | 0.298 | 0.437 | 0.226 | 1 | 0.509 | -0.064 | 0.497
11 | NC1(C(=O)N[C@@H](CCO)c2ccc(Cl)cc2)CCN(c2ncnc3[nH]ccc23)CC1 [Capivasertib] + CCN(CCO)CCCOc1ccc2c(Nc3cc(CC(=O)Nc4cccc(F)c4)[nH]n3)ncnc2c1 [AZD2811] (first compound max 10 µM, 7x7, partner max 1 µM) | -0.0838 | -0.0332 | -0.0204 | -0.0085 | -0.0412 | 0.952 | 0.292 | 0.359 | 0.379 | 0.392 | 0.35 | 0.449 | 0.417 | 0.78 | 0.52 | 1 | 0.464 | -0.0435 | 0.983
12 | NC1(C(=O)N[C@@H](CCO)c2ccc(Cl)cc2)CCN(c2ncnc3[nH]ccc23)CC1 [Capivasertib] + COc1nnc2ccc(N3CCC(c4ccc(OCCN5CCN(C)C(=O)[C@H]5C)cc4)CC3)nn12 [AZD5153] (first compound max 10 µM, 7x7, partner max 1 µM) | 0.0221 | -0.0536 | -0.0162 | -0.0061 | 0.001 | 1 | 0.681 | 0.461 | 0.258 | 0.636 | 0.481 | 0.504 | 0.455 | 0.834 | 0.472 | 1 | 0.841 | -0.01 | 0.828
13 | CS(=O)(=O)CCNCc1ccc(-c2ccc3ncnc(Nc4ccc(OCc5cccc(F)c5)c(Cl)c4)c3c2)o1 [Lapatinib] + Cn1cnc2c(F)c(Nc3ccc(Br)cc3Cl)c(C(=O)NOCCO)cc21 [Selumetinib] (first compound max 10 µM, 7x7, partner max 10 µM) | – | – | – | -0.0346 | – | 0.521 | 0.838 | 0.214 | 0.337 | 0.547 | – | – | 0.554 | 0.242 | – | 0.472 | – | – | 0.802
14 | CS(=O)(=O)CCNCc1ccc(-c2ccc3ncnc(Nc4ccc(OCc5cccc(F)c5)c(Cl)c4)c3c2)o1 [Lapatinib] + NC1(c2ccc(-c3nc4ccn5c(=O)[nH]nc5c4cc3-c3ccccc3)cc2)CCC1 [MK-2206] (first compound max 10 µM, 7x7, partner max 10 µM) | – | – | – | 0.0427 | -0.0202 | 0.947 | 0.888 | 0.503 | 0.126 | 0.545 | – | – | 0.765 | 0.868 | – | 0.99 | 0.995 | – | 0.847
15 | Cc1nc(-c2cn3c(n2)-c2ccc(-c4cnn(C(C)(C)C(N)=O)c4)cc2OCC3)n(C(C)C)n1 [Taselisib] + O=C(Nc1ccc2[nH]nc(-c3ccncc3)c2c1)[C@@H]1CCN(CC(=O)N2CCN(c3ccc(-c4ncccn4)cc3)CC2)C1 [SCH772984] (first compound max 10 µM, 7x7, partner max 5 µM) | – | – | – | 0.141 | – | 0.948 | 0.893 | 0.355 | 0.806 | 0.66 | – | – | 0.744 | 0.719 | – | 0.961 | – | – | 0.942
